Measurements published in patent US11013677B2, “Methods and compositions to reduce staining for antibacterial oral care compositions” (Colgate-Palmolive Company, priority 2019, dated 2021).

Experiments:
[1] = Bovine enamel model of CHX staining, FeCl3/CHX/chelator solutions, change in whiteness ΔW*; conditions: for effect on teeth staining caused by CHX: when exposed to an iron solution (FeCl3 + CHX)
Text: (§1) A bovine enamel model was used to mimic CHX staining. The bovine teeth samples were kept hydrated until use. Baseline (L*, a*, and b*) measurements were taken of the samples before treatment using a spectroshade. The samples were then placed in a solution representing each of the treatments of Table 2 and then in artificial saliva. This cycle of soaking in the treatment and in artificial saliva was then repeated 14 times for each sample, with spectroshade measurements taken every two cycles immediately after soaking in the artificial saliva step (the samples were dabbed dry before measurements). Control samples soaked in FeCl3 alone and FeCl3+CHX solutions were also done.
(§2) The L*, a*, and b* values were used to calculate the change in whiteness (ΔW*) for each tooth after treatment as compared to the baseline values using Formulas (1) and (2) below. W*=((a*−0)^2+(b*−0)^2+(L*−100)^2)^1/2 Formula (1) ΔW*=W*treated−W*baseline Formula (2)
The more positive the value of ΔW*, the darker the tooth color is.

[2] = Bovine enamel staining model, CHX oral care compositions with metal chelator, ΔW*; conditions: for effect on CHX-staining (ΔW*): added to an oral care composition containing CHX
Text: as §1, §2
Table 4 illustrates the effects of a metal chelator on CHX-caused staining when incorporating into an oral care composition including CHX according to implementations of the present disclosure. In particular, Table 4 illustrates the ΔW* for 5 oral care compositions containing CHX and measured similarly as described above. The more positive the value of ΔW*, the darker the tooth color is.
Oral Care Composition #1 is a commercially available antimicrobial oral rinse with 0.12% chlorhexidine gluconate. Oral Care Compositions #2-#5 are the same as Oral Care Composition #1 except they include the specified amounts (by weight) of a metal chelator.

With `O=P(O)(O)CN(CP(=O)(O)O)CP(=O)(O)O` [ATMP, aminotris(methylenephosphonic acid)] the “staining reduction, comparison of chelators” value ([1]; ATMP versus IDA, every cycle) was “performed better at every cycle compared to IDA” and the “effect on teeth staining caused by CHX” value [1] was “decreased the amount of teeth staining caused by CHX”.

In the case of `N[C@@H](CC(=O)O)C(=O)O` [Aspartic acid], the “relative performance in reducing CHX-staining” value ([2]; 1 weight % added to commercial rinse (0.12% chlorhexidine gluconate)) is reported as “best performers” and the “effect on CHX-staining (ΔW*)” value [2] is reported as “significantly reduced the amount of CHX-staining”.

With `[Cl][Fe]([Cl])[Cl]` [FeCl3 alone, FeCl3] the “ΔW* (change in whiteness)” value ([1]; Cycle 0 (baseline), more positive = darker tooth) was 0, the “ΔW* (change in whiteness)” value ([1]; Cycle 4 of treatment/artificial saliva soaking) was 1.31 and the “ΔW* (change in whiteness)” value ([1]; Cycle 6 of treatment/artificial saliva soaking) was 0.83. The “ΔW* (change in whiteness)” value ([1]; Cycle 8 of treatment/artificial saliva soaking) was 0.90, the “ΔW* (change in whiteness)” value ([1]; Cycle 10 of treatment/artificial saliva soaking) was 0.64 and the “ΔW* (change in whiteness)” value ([1]; Cycle 14 of treatment/artificial saliva soaking) was 0.78.

For `N[C@@H](CCC(=O)O)C(=O)O` [Glutamic acid], the “relative performance in reducing CHX-staining” value ([2]; 0.2 weight % added to commercial rinse (0.12% chlorhexidine gluconate)) was “best performers” and the “effect on CHX-staining (ΔW*)” value [2] was “significantly reduced the amount of CHX-staining”.

With `O=C(O)CC(NC(CC(=O)O)C(=O)O)C(=O)O` (stereo not shown) [Imminodisuccinic acid] the “effect on teeth staining caused by CHX” value [1] was “decreased the amount of teeth staining caused by CHX”.
